For assay [1], the target named is T1, Serine/threonine-protein kinase ULK1 (Homo sapiens, UniProt O75385).
T1 sequence (O75385 whole entry): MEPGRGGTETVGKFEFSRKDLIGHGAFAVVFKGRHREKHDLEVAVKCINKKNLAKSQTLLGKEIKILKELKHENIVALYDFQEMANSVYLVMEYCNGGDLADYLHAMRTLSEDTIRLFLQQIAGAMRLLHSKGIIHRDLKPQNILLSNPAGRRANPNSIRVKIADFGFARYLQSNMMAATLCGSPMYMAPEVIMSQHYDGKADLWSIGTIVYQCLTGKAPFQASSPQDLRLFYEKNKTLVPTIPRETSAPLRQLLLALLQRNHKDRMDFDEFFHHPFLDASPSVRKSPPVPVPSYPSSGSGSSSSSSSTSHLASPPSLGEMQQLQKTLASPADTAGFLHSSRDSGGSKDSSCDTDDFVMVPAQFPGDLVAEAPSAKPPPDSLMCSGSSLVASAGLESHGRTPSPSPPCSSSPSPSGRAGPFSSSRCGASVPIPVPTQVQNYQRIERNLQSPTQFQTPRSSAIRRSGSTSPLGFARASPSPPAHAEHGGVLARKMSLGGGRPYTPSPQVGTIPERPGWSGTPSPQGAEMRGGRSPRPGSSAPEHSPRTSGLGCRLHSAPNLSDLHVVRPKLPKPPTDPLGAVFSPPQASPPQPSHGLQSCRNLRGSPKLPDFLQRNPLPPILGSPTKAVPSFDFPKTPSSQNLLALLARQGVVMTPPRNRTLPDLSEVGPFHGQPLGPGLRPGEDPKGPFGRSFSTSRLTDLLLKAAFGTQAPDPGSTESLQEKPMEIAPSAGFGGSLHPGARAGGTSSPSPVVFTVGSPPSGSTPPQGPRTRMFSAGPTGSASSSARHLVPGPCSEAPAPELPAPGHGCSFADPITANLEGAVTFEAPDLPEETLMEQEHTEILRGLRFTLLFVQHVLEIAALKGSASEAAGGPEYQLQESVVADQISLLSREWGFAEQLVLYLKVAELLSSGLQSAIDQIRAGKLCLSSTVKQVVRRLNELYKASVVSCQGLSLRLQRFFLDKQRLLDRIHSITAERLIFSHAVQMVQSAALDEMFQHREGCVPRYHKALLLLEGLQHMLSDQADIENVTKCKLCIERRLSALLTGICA
In words: ADP Glo Kinase Activity Assay. As for the experimental part:
(§1) Table 3: ULK1 inhibitor potency was determined using the luminescent ADP Glo Kinase Assay (Promega), a universal ADP detection system that measures kinase activity by quantifying the amount of ADP produced during a kinase reaction. ULK1 kinase reactions are performed in a standard 96-well microplate (20 uL reaction volume) at 25° C. for 40 minutes in the presence or absence of the test compound (12-point dilution series starting at 10 uM). Addition of MBP substrate and ATP initiates the kinase reaction.The standard ADP Glo assay is performed in two steps. In step one, following the kinase reaction, an equal volume of ADP-Glo™ Reagent (20 uL) is added to terminate the kinase reaction and deplete the remaining ATP. In the second step, the Kinase Detection Reagent (10 uL) is added to simultaneously convert ADP to ATP and allow the newly synthesized ATP to be measured using a luciferase/luciferin reaction. Step two of the ADP Glo assay is performed in a white 384-well plate (20 uL final volume). Thirty minutes after the addition of the Detection reagent, light generated from the luciferase reaction is measured (1 second exposure) using a microplate compatible luminometer (CLARIOstar, BMG Labtech).Inhibition of ULK1 kinase activity is determined for each test compound by comparison to DMSO only control wells.
On the technique in general: ADP-Glo turns the ADP formed in a reaction into a luminescent signal.

For assay [2], the target named is T2, Serine/threonine-protein kinase ULK1 [1-649] (UniProt O75385).
T2 construct: 1-649
T2 sequence (O75385 whole entry): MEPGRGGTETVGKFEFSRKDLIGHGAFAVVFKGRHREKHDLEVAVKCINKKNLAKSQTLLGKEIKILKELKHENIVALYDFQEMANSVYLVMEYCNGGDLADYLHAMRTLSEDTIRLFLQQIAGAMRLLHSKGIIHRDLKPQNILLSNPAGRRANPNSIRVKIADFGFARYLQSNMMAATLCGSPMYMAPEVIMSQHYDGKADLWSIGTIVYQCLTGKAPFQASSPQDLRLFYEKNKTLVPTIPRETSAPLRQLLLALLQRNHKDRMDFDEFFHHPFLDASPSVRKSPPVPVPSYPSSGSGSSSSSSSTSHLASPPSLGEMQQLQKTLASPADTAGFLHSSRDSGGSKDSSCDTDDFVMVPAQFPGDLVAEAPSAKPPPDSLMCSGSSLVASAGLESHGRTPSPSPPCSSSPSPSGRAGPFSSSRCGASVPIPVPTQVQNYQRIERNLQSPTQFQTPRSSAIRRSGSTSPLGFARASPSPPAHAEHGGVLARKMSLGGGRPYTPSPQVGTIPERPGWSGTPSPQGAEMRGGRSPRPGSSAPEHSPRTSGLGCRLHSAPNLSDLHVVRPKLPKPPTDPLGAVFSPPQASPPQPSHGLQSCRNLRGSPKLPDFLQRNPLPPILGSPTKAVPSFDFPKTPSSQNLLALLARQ
In words: ADP Glo Kinase Activity Assay. As for the experimental part: as §1, with “4:” for “3:”, “μL” for “uL”, “μM).” for “uM).”, “peptide” for “MBP”, “μL)” for “uL)”, “wells. Inhibitor IC50 was calculated by plotting the change in luminescence after 30 minutes (response) versus inhibitor concentration (in log molar) then applying the four-parameter variable slope curve fit (GraphPad Prism).” for “wells.”

By IC50 is commonly meant the concentration at which inhibition is half-maximal. A high value points to a need for much substance. `COCCS(=O)(=O)c1csc(-c2nc(Nc3cc4c(cc3C3CC3)CNCC4)ncc2C(F)(F)F)c1` [US20250144094, Example 65] displayed a 50% inhibitory concentration (IC50) in assay [1] below 10 nM.

For `CN1Cc2ccc(Nc3ncc(C(F)(F)F)c(-c4cc(S(C)(=O)=O)cs4)n3)cc2C1` [US20250144094, Example 81], in assay [1], the 50% inhibitory concentration (IC50) is below 10 nM.

For `CN1CCc2cc(Nc3ncc(C(F)(F)F)c(-c4cc(S(C)(=O)=O)cs4)n3)ccc2C1` [US20250144094, Example 106], in assay [1], the IC50 was below 10 nM.

As to `CN1CCN(c2ccc(Nc3ncc(C(F)(F)F)c(-c4cc(S(C)(=O)=O)cs4)n3)c(Cl)c2)CC1` [US20250144094, Example 112], the half-maximal inhibitory concentration (IC50) in assay [1] was below 10 nM.

In the case of `CS(=O)(=O)c1csc(-c2nc(Nc3cn(C4CNC4)nc3C3CC3)ncc2C(F)(F)F)c1` [US20250144094, Example 130], the IC50 in assay [1] is below 10 nM.

`O=C1NCCS(=O)(=O)c2cc(-c3nc(Nc4cc5c(cc4F)CNCC5)ncc3C(F)(F)F)sc21` [US20250144094, Example 134]: in assay [1], the IC50 was below 10 nM.

Consider `O=C1c2sc(-c3nc(Nc4cc5c(cc4Cl)CNCC5)ncc3C(F)(F)F)cc2S(=O)(=O)CCN1CC1CC1` [US20250144094, Example 153], for which the IC50 in assay [2] was below 5 nM.

The molecule `CN1CCN(c2ccc(Nc3ncc(C(F)(F)F)c(-c4cc5c(s4)C(=O)N(C)CCS5(=O)=O)n3)c(Cl)c2)CC1` [US20250144094, Example 194] displayed an IC50 in assay [2] below 5 nM.

In turn, `CCN1CCc2cc(Nc3ncc(C(F)(F)F)c(-c4cc5c(s4)C(=O)N(C4CCC4)CCS5(=O)=O)n3)c(C3CC3)cc2C1` [US20250144094, Example 226] gave an IC50 in assay [2] below 5 nM.

For the molecule `CCc1cc2c(cc1Nc1ncc(C(F)(F)F)c(-c3cc4c(s3)C(=O)N(C3COC3)CCS4(=O)=O)n1)CCNC2` [US20250144094, Example 229], the IC50 in assay [2] is below 5 nM.

On to `CCN1CCc2cc(Nc3ncc(C(F)(F)F)c(-c4cc5c(s4)C(=O)N(CC(F)(F)F)CCS5(=O)=O)n3)c(C3CC3)cc2C1` [US20250144094, Example 245], for which, in assay [2], the IC50 was below 5 nM.

On to `O=C1c2sc(-c3nc(Nc4ccc(N5CCN(CC6CC6)CC5)cc4C4CC4)ncc3C(F)(F)F)cc2S(=O)(=O)CCN1C1CC1` [US20250144094, Example 251], for which the half-maximal inhibitory concentration (IC50) in assay [2] is below 5 nM.

Turning to `NC(=O)CN1CCc2cc(Nc3ncc(C(F)(F)F)c(-c4cc5c(s4)C(=O)N(C4CC4)CCS5(=O)=O)n3)c(C3CC3)cc2C1` [US20250144094, Example 278], the IC50 in assay [2] was below 5 nM.

`CCc1cc(C2CCNCC2)ccc1Nc1ncc(C(F)(F)F)c(-c2cc3c(s2)C(=O)N(C2CC2)CCS3(=O)=O)n1` [US20250144094, Example 281] had an IC50 in assay [2] of 7.5 nM.

The molecule `O=C1c2sc(-c3nc(Nc4cc5c(cc4C4CC4)CN(CCF)CC5)ncc3C(F)(F)F)cc2S(=O)(=O)CCN1C1COC1` [US20250144094, Example 290] showed a half-maximal inhibitory concentration (IC50) in assay [2] below 5 nM.

Regarding `C[C@@H]1CN(c2ccc(Nc3ncc(C(F)(F)F)c(-c4cc5c(s4)C(=O)N(C)CCS5(=O)=O)n3)c(C3CC3)c2)CCN1` [US20250144094, Example 365], the IC50 in assay [2] was below 5 nM.

`CN1CCS(=O)(=O)c2cc(-c3nc(Nc4ccc(N5CC6CC(C5)N6)cc4C4CC4)ncc3C(F)(F)F)sc2C1=O` [US20250144094, Example 381]: in assay [2], the IC50 was below 5 nM.

Values taken from BindingDB's records for patent US20250144094 (Erasca, 2025).
